We go through three compounds from patent publication US11578042B2, “3,5-diamino-6-chloro-N-(N-(4-(4-(2-(hexyl(2,3,4,5,6-pentahydroxyhexyl)amino)ethoxy)phenyl)butyl)carbamimidoyl)pyrazine-2-carboxamide” (Parion Sciences, Inc., priority 2011, dated 2023).

As a reminder, the fraction unbound is free concentration divided by total concentration. Usually logD stands for lipophilicity at a set pH, counting ionised and neutral species. Lower therefore signals lower lipophilicity. As a reminder, the ED50 is the midpoint of the dose-response relation.

Molecules are shown by their SMILES. Values joined by “and” are separate entries in the source; they are usually repeats but may differ in a detail not shown here. Equal values may be shown once. “Also recorded” adds a separate entry of the source.

Data set [1] is described as follows: Plasma potassium levels in sheep of the MCC study. Particulars: at effective / approximate ED50 doses.
Description: In these studies, adult sheep were restrained and nasally intubated with an endotracheal tube. Aerosolized test articles were administered over 10^−15 minutes to sheep. Radiolabeled ^99mTc-sulfur colloid (TSC, 3.1 mg/mL; containing approximately 20 mCi) was then administered at a specified time four or eight hours after test article. The radiolabeled aerosol was administered through the endotracheal tube for about 5 minutes. The sheep were then extubated, and total radioactive counts in the lung were measured every 5 minutes for a 1-hour observation period. The rate of radiolabel clearance from the lung is representative of the MCC rate in the animal. […] The model also allows for the collection of simultaneous PK/PD information through plasma and urine sampling over the test period.
Another data set deals with HBE cells. The experiment in a line: Airway surface liquid drug clearance and metabolism by human airway epithelium. To be noted: 25 μL of 25 μM on apical surface of HBE, 37° C.
For data set [2], the system named is mucociliary clearance (MCC). The experiment in a line: Mucociliary clearance (MCC) studies in sheep. Type of data set: in vivo. To be noted: for AUC / Initial Slope (4.0-4.5 h): Table 10, 4 mL, 4 h post-dose. The protocol:
Assay 2. Mucociliary Clearance (MCC) Studies in Sheep
The animal model that has been used most often to measure changes in MCC is the sheep model.
In these studies, adult sheep were restrained and nasally intubated with an endotracheal tube. Aerosolized test articles were administered over 10^−15 minutes to sheep. Radiolabeled ^99mTc-sulfur colloid (TSC, 3.1 mg/mL; containing approximately 20 mCi) was then administered at a specified time four or eight hours after test article. The radiolabeled aerosol was administered through the endotracheal tube for about 5 minutes. The sheep were then extubated, and total radioactive counts in the lung were measured every 5 minutes for a 1-hour observation period. The rate of radiolabel clearance from the lung is representative of the MCC rate in the animal. The advantage of this system is that it closely simulates the human lung environment. The model also allows for the collection of simultaneous PK/PD information through plasma and urine sampling over the test period. There are also several techniques to measure the drug concentrations on the airway surface during the MCC measurements. These include the collection of exhaled breath condensates or a filter paper method to obtain ASL via bronchoscopy.
Test solutions were aerosolized using a Raindrop nebulizer at a flowrate of eight liters per minute and connected to a dosimetry system consisting of a solenoid valve and a source of compressed air (20 psi). […] Using a Raindrop nebulizer, radiolabeled TSC was administered over approximately 3 minutes either 4 or 8 hours after drug treatment to evaluate efficacy/durability. Radioactive counts were measured in a central region in the right lung at 5 min intervals for one hour with a gamma camera.

Another data set is described as follows: Human plasma metabolism. Format: in vitro ADME. To be noted: read-out: Human Plasma Metabolism (t½).
Data set [3] can be described thus: Human plasma protein binding. Type of data set: in vitro ADME.
A further data set can be described thus: Log D. Type of data set: physicochemical.
For another data set, the system named is CBE cells. The experiment in a line: Airway hydration / surface liquid retention (in vitro CBE model). Particulars: 10 μM, 50 μL applied apically, 8 hours. Format: cell-based, canine. The protocol:
Primary CBE cells are plated onto collagen-coated, porous membranes maintained at an air-liquid interface to assess maintenance of surface liquid volume over time. At the start of the experiment, each 12 mm snapwell insert was removed from the plate containing air-liquid interface culture media, blotted dry, weighed, and 50 μL of vehicle (0.1% DMSO), or ENaC blocker (10 μM in 0.1% DMSO) applied to the apical surface and the mass was recorded. The inserts were immediately returned to a transwell plate (500 μL, Krebs Ringer Bicarbonate (KRB), pH 7.4 in lower chamber) and placed in a 37° C., 5% CO2 incubator. To reduce artifact due to an apical carbohydrate osmotic gradient upon water loss, glucose was not included in the apical buffer. […] The mass of surface liquid was converted to volume in μL. Data are reported as % initial volume (100%=50 μL).
The duration of sodium transport inhibition was determined indirectly by measuring the buffer retained after a 50 μl volume of experimental buffer was added to the apical surface of CBE cells.

The conditions of data set [4]: sheep, in vivo, iv.
[5] abbreviates: sheep MCC model, given as concentration.

Excerpt for HBE cells: Assay 3. d. Airway Surface Liquid Drug (ASL) Clearance and Metabolism by Human Airway Epithelium

`N=C(NCCCCc1ccc(OC[C@H](N)C(N)=O)cc1)NC(=O)c1nc(Cl)c(N)nc1N` [Comparative Example 4, (S)-3,5-diamino-6-chloro-N-(N-(4-(4-(2,3-diamino-3-oxopropoxy)phenyl)butyl)carbamimidoyl)pyrazine-2-carboxamide]: the “effect on plasma potassium” value in data set [1] is listed as “has elevations of plasma K; also recorded: significant increase in plasma potassium levels”. For the same compound, in the data set with HBE cells, the “% of Apical Mass as Metabolites (2 h)” value is 83% and 83.0 ± 3.5%; the “% on Basolateral Side as Metabolites (2 h)” value is 94.7 ± 1.0%. Besides, in data set [2] (11.2 μg/kg), the AUC was determined as 6.9 ± 1.0 % CI × h and the “Initial Slope (4.0-4.5 h)” value was 14.5 ± 1.3. In data set [2] (112 μg/kg), the AUC was found to be 14.1 ± 2.2 % CI × h and the “Initial Slope (4.0-4.5 h)” value is recorded as 32.2 ± 7.3. Moreover, in data set [2] (setting [5]), the “approximate ED50 dose” value is on record as around 3 mM. Further, the half-life in “Human plasma metabolism” worked out at 37 min. The fraction unbound in data set [3] was 0.24. Besides, the logD in the data set “Log D” is 0.64.

In the case of `N=C(N)NC(=O)c1nc(Cl)c(N)nc1N` [Amiloride, amiloride], the “surface liquid retained (% initial volume)” value in the data set with CBE cells came out at 25±19.2%.

`N=C(NCCCCc1ccc(OCCN(C[C@H](O)[C@@H](O)[C@H](O)[C@H](O)CO)C[C@H](O)[C@@H](O)[C@H](O)[C@H](O)CO)cc1)NC(=O)c1nc(Cl)c(N)nc1N` [Comparative Example 1]: in data set [4], the “dose recovered in urine” value is 43%. Also, in data set [1], the “effect on plasma potassium” value is reported as “causes a rise in plasma potassium”. Also, the ED50 in data set [2] (Ovis aries, sheep MCC at 8 hrs, read-out: Approximate ED50) was around 0.24 µmol/kg. Further, in data set [2] (Table 7, 3000 μM, 8 hrs), the “AUC, % of maximal effect” value is “(47%)”; the “AUC, change from vehicle” value was found to be 2.9 % CI*h; the “Max Clearance, % of maximal effect” value was “(31%)”; the “Max Clearance, change from vehicle” value was 4%. In data set [2] (Table 7, 3000 μM, 8 hrs), the “Slope (8-8.5 h), % of maximal effect” value was “(60%)” and the “Slope (8-8.5 h), change from vehicle” value is 6.1. Besides, the “Approximate ED50” value in data set [2] (sheep MCC at 8 hrs, listed as Comp. Ex. 1) is around 240 nmol/kg. For the same compound, in data set [2] (setting [5]), the “ED50 (AUC=47%)” value was “approximately 3000 μM” and the “approximate ED50 dose” value is around 3 mM.
